ChEMBL document CHEMBL5291721, “A preclinical secondary pharmacology resource illuminates target-adverse drug reaction associations of marketed drugs” (Nat Commun, 2023)

How the values were obtained:
[1] = target: D(1A) dopamine receptor (Homo sapiens, UniProt P21728); type: functional, cell-based
[2] = target: T1, Alpha-2A adrenergic receptor (Homo sapiens, UniProt P08913); type: functional, cell-based
T1 sequence (P08913 whole entry): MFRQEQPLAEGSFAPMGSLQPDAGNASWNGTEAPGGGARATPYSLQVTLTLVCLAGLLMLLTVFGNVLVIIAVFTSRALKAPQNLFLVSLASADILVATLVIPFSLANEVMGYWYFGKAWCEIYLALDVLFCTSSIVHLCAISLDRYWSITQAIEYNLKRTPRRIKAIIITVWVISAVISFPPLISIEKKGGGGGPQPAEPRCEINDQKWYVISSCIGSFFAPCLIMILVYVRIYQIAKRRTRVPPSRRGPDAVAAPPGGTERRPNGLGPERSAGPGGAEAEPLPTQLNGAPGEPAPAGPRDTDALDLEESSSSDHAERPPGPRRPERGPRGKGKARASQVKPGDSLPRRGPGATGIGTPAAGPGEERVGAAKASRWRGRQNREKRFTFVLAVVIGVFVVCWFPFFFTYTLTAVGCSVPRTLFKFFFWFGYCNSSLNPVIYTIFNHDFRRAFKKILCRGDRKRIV

[3] = target: T2, Progesterone receptor (Homo sapiens, UniProt P06401); type: functional
T2 sequence (P06401 whole entry): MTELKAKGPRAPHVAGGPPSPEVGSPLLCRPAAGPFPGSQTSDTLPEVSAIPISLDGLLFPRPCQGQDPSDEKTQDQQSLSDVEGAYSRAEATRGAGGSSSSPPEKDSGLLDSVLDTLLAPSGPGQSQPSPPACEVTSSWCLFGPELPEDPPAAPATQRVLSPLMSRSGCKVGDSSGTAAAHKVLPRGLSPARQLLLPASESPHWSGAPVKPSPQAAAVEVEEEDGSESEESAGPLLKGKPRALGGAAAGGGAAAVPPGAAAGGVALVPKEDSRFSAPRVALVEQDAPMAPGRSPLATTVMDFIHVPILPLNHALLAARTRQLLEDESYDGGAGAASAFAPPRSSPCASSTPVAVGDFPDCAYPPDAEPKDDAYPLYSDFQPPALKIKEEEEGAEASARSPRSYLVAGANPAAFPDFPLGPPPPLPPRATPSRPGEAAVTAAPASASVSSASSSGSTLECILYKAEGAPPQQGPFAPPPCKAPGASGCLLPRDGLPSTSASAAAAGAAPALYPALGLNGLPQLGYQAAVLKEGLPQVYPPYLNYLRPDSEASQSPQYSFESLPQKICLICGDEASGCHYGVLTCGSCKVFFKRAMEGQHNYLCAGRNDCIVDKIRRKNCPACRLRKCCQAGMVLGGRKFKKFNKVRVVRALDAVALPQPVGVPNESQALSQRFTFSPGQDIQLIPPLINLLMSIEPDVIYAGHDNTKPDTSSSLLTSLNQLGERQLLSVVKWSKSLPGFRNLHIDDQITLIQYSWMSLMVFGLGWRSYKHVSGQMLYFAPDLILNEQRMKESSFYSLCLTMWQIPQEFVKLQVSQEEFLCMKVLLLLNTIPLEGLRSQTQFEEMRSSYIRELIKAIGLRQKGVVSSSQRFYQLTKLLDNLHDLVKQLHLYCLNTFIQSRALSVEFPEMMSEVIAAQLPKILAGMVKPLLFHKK

[4] = target: 3',5'-cyclic-AMP phosphodiesterase 4D (Homo sapiens, UniProt Q08499); type: functional
Chain of 3',5'-cyclic-AMP phosphodiesterase 4D (Q08499 whole entry): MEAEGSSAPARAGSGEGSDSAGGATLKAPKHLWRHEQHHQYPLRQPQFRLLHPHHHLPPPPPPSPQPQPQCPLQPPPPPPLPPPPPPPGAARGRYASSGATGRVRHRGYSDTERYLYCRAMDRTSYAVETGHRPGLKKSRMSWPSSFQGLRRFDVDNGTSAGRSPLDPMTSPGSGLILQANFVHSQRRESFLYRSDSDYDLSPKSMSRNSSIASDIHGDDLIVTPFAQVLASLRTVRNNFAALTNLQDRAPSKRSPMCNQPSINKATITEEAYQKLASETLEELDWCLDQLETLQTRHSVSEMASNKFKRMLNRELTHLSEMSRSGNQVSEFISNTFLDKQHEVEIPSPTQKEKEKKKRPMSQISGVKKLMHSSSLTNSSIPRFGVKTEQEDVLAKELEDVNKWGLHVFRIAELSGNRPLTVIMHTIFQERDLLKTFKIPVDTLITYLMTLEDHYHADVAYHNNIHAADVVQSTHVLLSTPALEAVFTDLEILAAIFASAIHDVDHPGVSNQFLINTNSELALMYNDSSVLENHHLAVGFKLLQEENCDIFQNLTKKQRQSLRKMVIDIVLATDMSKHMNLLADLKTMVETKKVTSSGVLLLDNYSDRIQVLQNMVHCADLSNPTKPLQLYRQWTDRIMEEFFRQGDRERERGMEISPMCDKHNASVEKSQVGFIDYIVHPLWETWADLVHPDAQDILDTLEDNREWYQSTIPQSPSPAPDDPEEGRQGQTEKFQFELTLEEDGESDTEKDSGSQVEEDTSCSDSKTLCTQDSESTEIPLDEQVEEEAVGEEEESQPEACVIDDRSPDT

[5] = target: Delta-type opioid receptor (Homo sapiens, UniProt P41143)
Chain of Delta-type opioid receptor (P41143 whole entry): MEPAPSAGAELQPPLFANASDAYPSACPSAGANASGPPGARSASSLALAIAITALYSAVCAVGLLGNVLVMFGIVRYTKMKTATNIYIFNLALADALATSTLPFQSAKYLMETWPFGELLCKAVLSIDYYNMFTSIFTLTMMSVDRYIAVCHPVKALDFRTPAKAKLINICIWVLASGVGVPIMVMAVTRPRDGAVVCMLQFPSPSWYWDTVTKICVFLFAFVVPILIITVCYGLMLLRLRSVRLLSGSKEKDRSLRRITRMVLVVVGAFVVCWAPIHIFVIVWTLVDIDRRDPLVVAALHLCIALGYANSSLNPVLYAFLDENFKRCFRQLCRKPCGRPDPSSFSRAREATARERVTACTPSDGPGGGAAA

[6] = target: T3, Alpha-1A adrenergic receptor (Homo sapiens, UniProt P35348); type: functional, cell-based
T3 sequence (P35348 whole entry): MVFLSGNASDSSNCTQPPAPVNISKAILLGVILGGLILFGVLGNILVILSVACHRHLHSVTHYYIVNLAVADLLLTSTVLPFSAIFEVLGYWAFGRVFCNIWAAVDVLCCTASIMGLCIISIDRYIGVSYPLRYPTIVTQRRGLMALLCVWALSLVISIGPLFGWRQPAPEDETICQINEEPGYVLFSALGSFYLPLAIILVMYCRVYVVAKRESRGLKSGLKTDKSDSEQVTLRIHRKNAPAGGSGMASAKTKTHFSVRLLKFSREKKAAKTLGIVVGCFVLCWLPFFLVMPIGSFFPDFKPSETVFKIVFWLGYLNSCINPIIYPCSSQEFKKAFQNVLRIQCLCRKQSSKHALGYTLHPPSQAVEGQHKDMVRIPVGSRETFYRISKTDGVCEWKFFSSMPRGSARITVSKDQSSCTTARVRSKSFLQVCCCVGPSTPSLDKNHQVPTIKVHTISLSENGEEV

[7] = target: T4, Equilibrative nucleoside transporter 1 (Homo sapiens, UniProt Q99808)
T4 sequence (Q99808 whole entry): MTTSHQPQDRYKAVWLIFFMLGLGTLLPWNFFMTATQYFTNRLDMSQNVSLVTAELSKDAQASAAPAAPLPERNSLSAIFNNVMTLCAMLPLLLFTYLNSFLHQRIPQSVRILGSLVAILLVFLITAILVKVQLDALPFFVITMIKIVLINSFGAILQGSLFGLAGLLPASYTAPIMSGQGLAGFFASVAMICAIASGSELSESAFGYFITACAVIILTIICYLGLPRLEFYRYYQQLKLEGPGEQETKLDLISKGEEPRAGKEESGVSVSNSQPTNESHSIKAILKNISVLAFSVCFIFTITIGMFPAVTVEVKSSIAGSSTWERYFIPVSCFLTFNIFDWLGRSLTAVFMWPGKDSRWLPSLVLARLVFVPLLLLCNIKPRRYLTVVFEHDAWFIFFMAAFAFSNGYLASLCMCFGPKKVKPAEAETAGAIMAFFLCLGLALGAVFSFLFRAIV

[8] = target: Beta-2 adrenergic receptor (Homo sapiens, UniProt P07550); type: functional, cell-based
Chain of Beta-2 adrenergic receptor (P07550 whole entry): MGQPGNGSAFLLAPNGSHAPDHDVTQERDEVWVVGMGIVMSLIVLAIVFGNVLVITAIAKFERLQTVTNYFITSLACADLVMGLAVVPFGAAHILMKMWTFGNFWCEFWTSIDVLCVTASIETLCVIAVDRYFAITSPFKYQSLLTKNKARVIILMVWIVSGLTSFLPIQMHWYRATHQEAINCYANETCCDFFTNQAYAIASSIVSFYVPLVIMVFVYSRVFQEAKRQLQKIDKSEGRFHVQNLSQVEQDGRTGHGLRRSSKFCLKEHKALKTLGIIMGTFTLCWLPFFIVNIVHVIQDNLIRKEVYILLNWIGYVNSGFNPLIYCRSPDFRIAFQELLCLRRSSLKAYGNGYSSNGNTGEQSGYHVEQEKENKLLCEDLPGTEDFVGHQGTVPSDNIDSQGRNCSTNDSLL

[9] = target: Histamine H3 receptor (Homo sapiens, UniProt Q9Y5N1)
Chain of Histamine H3 receptor (Q9Y5N1 whole entry): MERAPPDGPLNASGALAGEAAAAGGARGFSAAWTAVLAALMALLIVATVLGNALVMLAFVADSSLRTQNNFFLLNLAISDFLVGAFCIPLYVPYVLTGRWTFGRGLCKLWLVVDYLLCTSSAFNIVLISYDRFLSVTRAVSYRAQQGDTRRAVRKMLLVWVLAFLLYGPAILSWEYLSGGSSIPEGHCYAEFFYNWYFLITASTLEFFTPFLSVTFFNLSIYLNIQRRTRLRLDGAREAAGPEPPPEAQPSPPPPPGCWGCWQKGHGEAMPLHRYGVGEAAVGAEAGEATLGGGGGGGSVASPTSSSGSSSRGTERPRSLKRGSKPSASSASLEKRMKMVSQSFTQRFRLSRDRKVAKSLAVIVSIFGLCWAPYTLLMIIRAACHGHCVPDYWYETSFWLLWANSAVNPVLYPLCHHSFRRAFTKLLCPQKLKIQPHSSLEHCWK

[10] = target: Vascular endothelial growth factor receptor 2 (Homo sapiens, UniProt P35968); type: functional
Chain of Vascular endothelial growth factor receptor 2 (P35968 whole entry): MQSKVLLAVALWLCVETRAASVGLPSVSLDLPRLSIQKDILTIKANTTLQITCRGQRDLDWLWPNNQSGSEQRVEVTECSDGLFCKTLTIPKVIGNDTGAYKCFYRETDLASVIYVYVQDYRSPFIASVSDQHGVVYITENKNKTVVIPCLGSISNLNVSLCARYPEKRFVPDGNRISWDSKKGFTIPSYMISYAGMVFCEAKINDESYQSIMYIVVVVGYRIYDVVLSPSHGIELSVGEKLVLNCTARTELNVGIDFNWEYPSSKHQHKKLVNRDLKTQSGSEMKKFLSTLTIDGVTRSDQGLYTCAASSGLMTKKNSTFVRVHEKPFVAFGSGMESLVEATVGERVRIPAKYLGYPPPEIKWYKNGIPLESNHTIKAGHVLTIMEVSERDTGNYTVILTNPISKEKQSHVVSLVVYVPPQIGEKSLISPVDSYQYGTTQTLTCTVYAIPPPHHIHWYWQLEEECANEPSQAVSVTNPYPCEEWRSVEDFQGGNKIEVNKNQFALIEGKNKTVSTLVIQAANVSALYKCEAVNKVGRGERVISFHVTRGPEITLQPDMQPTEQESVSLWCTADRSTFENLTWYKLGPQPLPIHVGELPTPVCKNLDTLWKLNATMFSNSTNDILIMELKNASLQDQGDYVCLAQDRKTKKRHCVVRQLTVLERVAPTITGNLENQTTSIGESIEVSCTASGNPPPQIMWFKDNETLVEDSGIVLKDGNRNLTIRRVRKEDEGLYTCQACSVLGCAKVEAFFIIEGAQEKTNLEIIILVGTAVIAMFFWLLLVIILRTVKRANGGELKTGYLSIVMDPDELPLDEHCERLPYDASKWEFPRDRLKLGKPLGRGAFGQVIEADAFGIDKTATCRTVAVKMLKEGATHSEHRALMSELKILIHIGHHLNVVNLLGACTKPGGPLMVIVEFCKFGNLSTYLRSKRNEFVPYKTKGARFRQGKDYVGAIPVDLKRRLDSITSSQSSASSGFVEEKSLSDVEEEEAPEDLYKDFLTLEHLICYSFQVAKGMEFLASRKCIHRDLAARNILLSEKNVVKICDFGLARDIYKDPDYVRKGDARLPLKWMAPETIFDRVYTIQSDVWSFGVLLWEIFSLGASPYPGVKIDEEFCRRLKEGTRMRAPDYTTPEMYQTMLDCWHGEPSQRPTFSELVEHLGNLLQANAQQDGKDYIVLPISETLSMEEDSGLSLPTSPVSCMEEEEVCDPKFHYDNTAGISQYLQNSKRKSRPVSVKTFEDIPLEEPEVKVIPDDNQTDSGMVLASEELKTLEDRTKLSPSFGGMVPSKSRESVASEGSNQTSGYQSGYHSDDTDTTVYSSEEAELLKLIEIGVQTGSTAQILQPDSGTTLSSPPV
Note: assay procedure not described here.

Chain of D(1A) dopamine receptor (P21728 whole entry): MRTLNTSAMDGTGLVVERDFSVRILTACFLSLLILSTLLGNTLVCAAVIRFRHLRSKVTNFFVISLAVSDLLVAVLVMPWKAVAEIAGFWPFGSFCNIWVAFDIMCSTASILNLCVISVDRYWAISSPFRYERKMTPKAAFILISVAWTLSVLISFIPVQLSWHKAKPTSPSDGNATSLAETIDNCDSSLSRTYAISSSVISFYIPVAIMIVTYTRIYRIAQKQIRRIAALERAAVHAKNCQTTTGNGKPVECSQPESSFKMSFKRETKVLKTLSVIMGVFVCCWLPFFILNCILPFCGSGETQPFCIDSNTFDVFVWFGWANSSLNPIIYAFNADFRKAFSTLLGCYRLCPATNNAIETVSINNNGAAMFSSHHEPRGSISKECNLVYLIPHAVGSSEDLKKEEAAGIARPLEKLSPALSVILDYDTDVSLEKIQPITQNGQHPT

| Compound | AC50 [1] | AC50 [2] | AC50 [3] | AC50 [4] | AC50 [5] | AC50 [6] | AC50 [7] | AC50 [8] | AC50 [9] | AC50 [10] |
| --- | --- | --- | --- | --- | --- | --- | --- | --- | --- | --- |
| O=C1C(CC[S+]([O-])c2ccccc2)C(=O)N(c2ccccc2)N1c1ccccc1 (stereo unspecified) [SULFINPYRAZONE] | > 10 µM | > 30 µM | > 10 µM | > 30 µM | > 30 µM | > 30 µM | > 10 µM | > 30 µM |  |  |
| CN(C)CCC[C@@]1(c2ccc(F)cc2)OCc2cc(C#N)ccc21 [ESCITALOPRAM] |  | > 30 µM | > 30 µM | > 30 µM | > 30 µM |  | > 30 µM | > 30 µM | > 30 µM |  |
| Nc1ccc(S(=O)(=O)Nc2nccs2)cc1 [SULFATHIAZOLE] | > 10 µM | > 10 µM |  | > 30 µM | > 30 µM | > 30 µM | > 30 µM | > 30 µM | > 10 µM |  |
| CC(C)N(CCC(C(N)=O)(c1ccccc1)c1ccccn1)C(C)C (stereo unspecified) [DISOPYRAMIDE] | > 10 µM | > 10 µM | > 30 µM | > 10 µM | > 30 µM | > 30 µM | > 30 µM | > 30 µM | > 30 µM |  |
| C=C[C@H]1C[N@@]2CC[C@H]1C[C@@H]2[C@@H](O)c1ccnc2ccc(OC)cc12 [QUINIDINE] | > 10 µM | > 10 µM |  | > 30 µM | > 30 µM |  | > 30 µM | > 30 µM | > 10 µM |  |
| C[C@H]1c2cccc(O)c2C(=O)C2=C(O)[C@]3(O)C(=O)C(C(N)=O)=C(O)[C@@H](N(C)C)[C@@H]3[C@@H](O)[C@@H]21 [DOXYCYCLINE] | > 10 µM | > 10 µM |  | > 30 µM | > 30 µM | > 30 µM | > 30 µM | > 30 µM | > 10 µM |  |
| CN(C)[C@@H]1C(O)=C(C(N)=O)C(=O)[C@@]2(O)C(O)=C3C(=O)c4c(O)ccc(Cl)c4[C@@](C)(O)[C@H]3C[C@@H]12 [CHLORTETRACYCLINE] |  |  |  |  |  |  |  |  |  | > 30 µM |
| CC(C)C[C@H](NC(=O)CNC(=O)c1cc(Cl)ccc1Cl)B(O)O [IXAZOMIB] |  |  |  |  |  |  |  |  |  | > 30 µM |
| O=C(O)c1cc(/N=N/c2ccc(O)c(C(=O)O)c2)ccc1O [OLSALAZINE] |  |  |  |  |  |  |  |  |  | 12.3 µM |
| CN1CCCCC1CCN1c2ccccc2Sc2ccc([S+](C)[O-])cc21 (stereo unspecified) [MESORIDAZINE] |  |  |  |  |  |  |  |  |  | > 30 µM |
| O=C1/C(=C2\Nc3ccc(S(=O)(=O)O)cc3C2=O)Nc2ccc(S(=O)(=O)O)cc21 [INDIGOTINDISULFONATE] |  |  |  |  |  |  |  |  |  | 3.05 µM |
| CC(=O)O[C@]1(C(C)=O)CC[C@H]2[C@@H]3C=C(C)C4=CC(=O)CC[C@@H]4[C@H]3CC[C@@]21C [NOMEGESTROL ACETATE] | > 30 µM | > 30 µM | 0.028 µM | 14 µM | > 30 µM | > 30 µM | > 30 µM | > 30 µM |  |  |
| FC(F)(F)c1ccc(CNc2ccc(Cc3c[nH]c4ncc(Cl)cc34)cn2)cn1 [PEXIDARTINIB] |  |  |  |  |  |  |  |  |  | 0.131 µM |
| CN1CCC(=C2c3ccccc3Sc3ccccc32)CC1 [PIMETHIXENE] |  |  |  |  |  |  |  |  |  | > 30 µM |
| CC(C)(O)CNc1nc(Nc2ccnc(C(F)(F)F)c2)nc(-c2cccc(C(F)(F)F)n2)n1 [ENASIDENIB] |  |  |  |  |  |  |  |  |  | 20.5 µM |
| CN(CC1(C)CCCO1)S(=O)(=O)c1ccc(Cl)c(S(N)(=O)=O)c1 (stereo unspecified) [MEFRUSIDE] | > 30 µM | > 30 µM |  | > 30 µM | > 30 µM | > 30 µM |  | > 30 µM |  |  |
| CNC(=O)Oc1cccc2ccccc12 [CARBARIL] |  |  |  |  |  |  |  |  |  | > 30 µM |
| C[C@]1(Cn2ccnn2)[C@H](C(=O)O)N2C(=O)C[C@H]2S1(=O)=O [TAZOBACTAM] |  |  |  |  |  |  |  |  |  | > 30 µM |
| C[N+](C)(C)C[C@H](O)CC(=O)[O-] [LEVOCARNITINE] |  |  |  |  |  |  |  |  |  | > 30 µM |
| C[C@@H](Oc1cc(-c2cnn(C3CCNCC3)c2)cnc1N)c1c(Cl)ccc(F)c1Cl [CRIZOTINIB] | > 30 µM | > 30 µM | > 30 µM | 4.8 µM | > 30 µM |  | > 30 µM | > 30 µM |  |  |
| CC[C@H](C)C[C@H](C)CCCCCCCCC(=O)N[C@H]1C[C@@H](O)[C@@H](NCCN)NC(=O)[C@@H]2[C@@H](O)CCN2C(=O)[C@H]([C@H](O)CCN)NC(=O)[C@H]([C@H](O)[C@@H](O)c2ccc(O)cc2)NC(=O)[C@@H]2C[C@@H](O)CN2C(=O)[C@H]([C@@H](C)O)NC1=O [CASPOFUNGIN] |  |  |  |  |  |  |  |  |  | > 10 µM |
| CN(C)CCc1c[nH]c2ccc(Cn3cncn3)cc12 [RIZATRIPTAN] | > 30 µM | > 30 µM |  | > 30 µM | > 30 µM | > 30 µM | > 30 µM | > 30 µM | > 10 µM |  |
| CC[C@H]1OC(=O)[C@H](C)C(=O)[C@H](C)[C@@H](O[C@@H]2O[C@H](C)C[C@H](N(C)C)[C@H]2O)[C@](C)(OC)C[C@@H](C)C(=O)[C@H](C)[C@H]2N(CCCCn3cnc(-c4cccnc4)c3)C(=O)O[C@]12C [TELITHROMYCIN] |  |  |  |  |  |  |  |  |  | > 30 µM |
| CC(=O)Oc1cc(C(F)(F)F)ccc1C(=O)O [TRIFLUSAL] |  |  |  |  |  |  |  |  |  | > 30 µM |
| C#C[C@]1(O)CC[C@H]2[C@@H]3CCC4=CC(=O)CC[C@@H]4[C@H]3C(=C)C[C@@]21CC [ETONOGESTREL] | > 30 µM | > 30 µM |  | > 30 µM | > 30 µM | > 30 µM |  | > 30 µM |  |  |
| C[C@H](CCC(=O)O)[C@H]1CC[C@H]2[C@@H]3[C@@H](O)C[C@@H]4C[C@H](O)CC[C@]4(C)[C@H]3CC[C@]12C [URSODIOL] | > 30 µM | > 30 µM |  | > 30 µM | > 30 µM | > 30 µM | > 30 µM | > 30 µM | > 30 µM |  |
| C[C@@H]1C[C@H]2[C@@H]3CCC4=CC(=O)C=C[C@]4(C)[C@@]3(Cl)[C@@H](O)C[C@]2(C)[C@@]1(OC(=O)c1ccco1)C(=O)CCl [MOMETASONE FUROATE] |  |  |  |  |  |  |  |  |  | > 30 µM |
| C[C@H]1O[C@@H](n2cc(F)c(=O)[nH]c2=O)[C@H](O)[C@@H]1O [DOXIFLURIDINE] |  |  |  |  |  |  |  |  |  | > 30 µM |
